Assay results: ChEMBL document CHEMBL3856205, “Synthesis and biological evaluation of novel 4-hydroxytamoxifen analogs as estrogen-related receptor gamma inverse agonists” (Eur J Med Chem, 2016)
Each block holds one compound with its values, some of them ahead of it.

Experiments:
[1] = biological target: T1, Estrogen-related receptor gamma (Homo sapiens, UniProt P62508)
T1 sequence (P62508 whole entry): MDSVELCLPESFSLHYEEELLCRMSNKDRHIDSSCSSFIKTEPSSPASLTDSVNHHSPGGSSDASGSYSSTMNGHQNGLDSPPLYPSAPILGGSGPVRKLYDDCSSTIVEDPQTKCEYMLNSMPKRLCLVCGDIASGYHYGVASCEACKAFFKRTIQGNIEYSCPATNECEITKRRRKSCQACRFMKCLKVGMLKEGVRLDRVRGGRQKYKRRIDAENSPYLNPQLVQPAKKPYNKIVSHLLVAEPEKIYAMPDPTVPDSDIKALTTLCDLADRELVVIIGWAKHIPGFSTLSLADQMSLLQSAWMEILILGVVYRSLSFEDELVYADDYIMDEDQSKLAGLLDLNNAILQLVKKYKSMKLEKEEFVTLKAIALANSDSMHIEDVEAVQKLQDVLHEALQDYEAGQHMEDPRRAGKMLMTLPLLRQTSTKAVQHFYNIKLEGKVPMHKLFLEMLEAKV
Description: Inhibition of fluorescien-conjugated coactivator PGC1a binding to GST-tagged human ERRgamma LBD after 1 hr by TR-FRET assay

[2] = biological target: T2, Steroid hormone receptor ERR1 (Homo sapiens, UniProt P11474); test: Inhibition of fluorescien-conjugated coactivator PGC1a binding to ERRalpha (unknown origin) after 1 hr by TR-FRET assay
T2 sequence (P11474 whole entry): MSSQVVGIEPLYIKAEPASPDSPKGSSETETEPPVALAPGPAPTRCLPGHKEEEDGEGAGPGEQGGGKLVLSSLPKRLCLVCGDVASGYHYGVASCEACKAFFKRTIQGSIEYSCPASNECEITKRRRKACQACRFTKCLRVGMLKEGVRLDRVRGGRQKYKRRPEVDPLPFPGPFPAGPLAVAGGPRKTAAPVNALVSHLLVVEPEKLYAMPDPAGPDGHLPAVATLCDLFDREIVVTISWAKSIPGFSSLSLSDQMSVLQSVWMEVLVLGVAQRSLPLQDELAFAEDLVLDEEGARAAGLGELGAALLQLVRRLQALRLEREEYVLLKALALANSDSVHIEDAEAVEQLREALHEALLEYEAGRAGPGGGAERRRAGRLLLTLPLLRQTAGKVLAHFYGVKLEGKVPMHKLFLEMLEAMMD

[3] = biological target: T3, CYP1A2 (Homo sapiens, UniProt P05177); test: Inhibition of CYP1A2 in human liver microsomes assessed as remaining activity by measuring phenacetin O-deethylase activity at 10 uM pre-incubated for 5 mins followed by NADPH regenerating system addition by LC-MS/MS analysis relative to control; assay type: ADME; conditions: probe phenacetin (O-deethylation), read-out: Activity
T3 sequence (P05177 whole entry): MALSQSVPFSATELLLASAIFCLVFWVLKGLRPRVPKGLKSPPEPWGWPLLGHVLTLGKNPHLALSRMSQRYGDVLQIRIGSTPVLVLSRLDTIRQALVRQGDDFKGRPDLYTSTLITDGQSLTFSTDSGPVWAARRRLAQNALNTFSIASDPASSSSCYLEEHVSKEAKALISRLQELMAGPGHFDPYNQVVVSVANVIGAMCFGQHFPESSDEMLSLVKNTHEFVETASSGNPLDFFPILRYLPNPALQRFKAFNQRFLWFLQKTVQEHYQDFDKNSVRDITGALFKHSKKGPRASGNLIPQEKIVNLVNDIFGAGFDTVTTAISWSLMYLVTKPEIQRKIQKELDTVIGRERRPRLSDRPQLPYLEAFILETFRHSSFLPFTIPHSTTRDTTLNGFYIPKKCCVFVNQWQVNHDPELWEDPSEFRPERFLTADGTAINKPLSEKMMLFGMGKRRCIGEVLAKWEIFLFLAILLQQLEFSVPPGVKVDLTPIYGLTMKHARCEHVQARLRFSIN

[4] = biological target: T4, Steroid hormone receptor ERR2 (Homo sapiens, UniProt O95718); test: Inhibition of fluorescien-conjugated coactivator PGC1a binding to ERRbeta (unknown origin) after 1 hr by TR-FRET assay
T4 sequence (O95718 whole entry): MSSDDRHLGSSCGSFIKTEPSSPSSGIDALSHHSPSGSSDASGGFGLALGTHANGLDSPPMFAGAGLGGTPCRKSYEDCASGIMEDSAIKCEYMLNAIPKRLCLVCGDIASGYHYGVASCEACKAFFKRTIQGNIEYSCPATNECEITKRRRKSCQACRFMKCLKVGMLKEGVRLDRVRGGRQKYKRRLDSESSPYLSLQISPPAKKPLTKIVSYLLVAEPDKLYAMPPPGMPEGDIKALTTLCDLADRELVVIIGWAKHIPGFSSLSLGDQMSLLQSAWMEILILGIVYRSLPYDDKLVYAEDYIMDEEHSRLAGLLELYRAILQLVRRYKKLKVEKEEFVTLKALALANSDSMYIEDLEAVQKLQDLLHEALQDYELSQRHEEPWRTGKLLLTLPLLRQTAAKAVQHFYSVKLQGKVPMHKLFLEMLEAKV

[5] = biological target: CYP2C9 (Homo sapiens, UniProt P11712); test: Inhibition of CYP2C9 in human liver microsomes assessed as remaining activity by measuring tolbutamide 4-hydroxylase activity at 10 uM pre-incubated for 5 mins followed by NADPH regenerating system addition by LC-MS/MS analysis relative to control; assay type: ADME; conditions: probe tolbutamide (4-hydroxylation), read-out: Activity
Sequence of CYP2C9 (P11712 whole entry): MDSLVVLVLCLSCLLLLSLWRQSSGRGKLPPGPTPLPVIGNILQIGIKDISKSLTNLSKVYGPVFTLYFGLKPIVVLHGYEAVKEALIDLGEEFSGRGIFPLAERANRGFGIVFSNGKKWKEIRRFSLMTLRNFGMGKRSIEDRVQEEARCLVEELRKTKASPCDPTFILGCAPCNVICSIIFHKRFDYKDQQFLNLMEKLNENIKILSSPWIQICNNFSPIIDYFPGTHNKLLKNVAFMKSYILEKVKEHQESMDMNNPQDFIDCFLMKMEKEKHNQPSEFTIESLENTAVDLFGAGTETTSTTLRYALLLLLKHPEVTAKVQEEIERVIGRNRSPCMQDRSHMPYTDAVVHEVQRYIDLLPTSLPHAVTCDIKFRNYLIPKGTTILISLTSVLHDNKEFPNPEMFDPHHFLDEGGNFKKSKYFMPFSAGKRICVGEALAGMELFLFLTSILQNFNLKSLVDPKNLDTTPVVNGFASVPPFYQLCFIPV

[6] = biological target: CYP2C19 (Homo sapiens, UniProt P33261); test: Inhibition of CYP2C19 in human liver microsomes assessed as remaining activity by measuring S-mephenytoin 4-hydroxylase activity at 10 uM pre-incubated for 5 mins followed by NADPH regenerating system addition by LC-MS/MS analysis relative to control; assay type: ADME; conditions: probe S-mephenytoin (4-hydroxylation), read-out: Activity
Sequence of CYP2C19 (P33261 whole entry): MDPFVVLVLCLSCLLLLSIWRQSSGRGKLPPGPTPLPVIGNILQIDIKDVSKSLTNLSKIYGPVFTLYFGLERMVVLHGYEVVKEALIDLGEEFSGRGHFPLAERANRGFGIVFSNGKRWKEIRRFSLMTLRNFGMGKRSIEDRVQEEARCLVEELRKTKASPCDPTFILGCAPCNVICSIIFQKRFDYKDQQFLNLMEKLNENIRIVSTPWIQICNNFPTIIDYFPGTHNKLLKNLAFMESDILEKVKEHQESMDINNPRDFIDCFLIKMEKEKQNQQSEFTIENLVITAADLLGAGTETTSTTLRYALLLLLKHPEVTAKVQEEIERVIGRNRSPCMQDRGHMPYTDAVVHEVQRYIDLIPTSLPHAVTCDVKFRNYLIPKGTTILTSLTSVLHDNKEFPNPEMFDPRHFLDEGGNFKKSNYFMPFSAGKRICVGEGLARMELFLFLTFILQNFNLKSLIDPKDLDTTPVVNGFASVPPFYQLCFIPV

[7] = biological target: CYP2D6 (Homo sapiens, UniProt P10635); test: Inhibition of CYP2D6 in human liver microsomes assessed as remaining activity by measuring dextromethorphan O-demethylase activity at 10 uM pre-incubated for 5 mins followed by NADPH regenerating system addition by LC-MS/MS analysis relative to control; assay type: ADME; conditions: probe dextromethorphan (O-demethylation), read-out: Activity
Sequence of CYP2D6 (P10635 whole entry): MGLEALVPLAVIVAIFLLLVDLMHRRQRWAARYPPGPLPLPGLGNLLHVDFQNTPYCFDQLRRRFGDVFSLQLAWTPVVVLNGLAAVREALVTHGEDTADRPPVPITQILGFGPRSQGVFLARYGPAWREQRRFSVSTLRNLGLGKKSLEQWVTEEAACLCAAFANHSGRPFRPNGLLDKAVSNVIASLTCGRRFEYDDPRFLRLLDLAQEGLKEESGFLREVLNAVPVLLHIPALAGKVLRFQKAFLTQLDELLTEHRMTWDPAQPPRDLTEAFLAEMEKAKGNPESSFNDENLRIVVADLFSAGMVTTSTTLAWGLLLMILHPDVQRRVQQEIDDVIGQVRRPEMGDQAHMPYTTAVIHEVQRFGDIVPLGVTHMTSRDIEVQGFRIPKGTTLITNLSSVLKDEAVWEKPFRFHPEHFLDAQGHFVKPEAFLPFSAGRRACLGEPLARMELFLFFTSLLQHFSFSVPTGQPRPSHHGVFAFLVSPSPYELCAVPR

[8] = biological target: CYP3A4 (Homo sapiens, UniProt P08684); test: Inhibition of CYP3A4 in human liver microsomes assessed as remaining activity by measuring midazolam 1'-hydroxylase activity at 10 uM pre-incubated for 5 mins followed by NADPH regenerating system addition by LC-MS/MS analysis relative to control; assay type: ADME; conditions: probe midazolam (1'-hydroxylation), read-out: Activity
Sequence of CYP3A4 (P08684 whole entry): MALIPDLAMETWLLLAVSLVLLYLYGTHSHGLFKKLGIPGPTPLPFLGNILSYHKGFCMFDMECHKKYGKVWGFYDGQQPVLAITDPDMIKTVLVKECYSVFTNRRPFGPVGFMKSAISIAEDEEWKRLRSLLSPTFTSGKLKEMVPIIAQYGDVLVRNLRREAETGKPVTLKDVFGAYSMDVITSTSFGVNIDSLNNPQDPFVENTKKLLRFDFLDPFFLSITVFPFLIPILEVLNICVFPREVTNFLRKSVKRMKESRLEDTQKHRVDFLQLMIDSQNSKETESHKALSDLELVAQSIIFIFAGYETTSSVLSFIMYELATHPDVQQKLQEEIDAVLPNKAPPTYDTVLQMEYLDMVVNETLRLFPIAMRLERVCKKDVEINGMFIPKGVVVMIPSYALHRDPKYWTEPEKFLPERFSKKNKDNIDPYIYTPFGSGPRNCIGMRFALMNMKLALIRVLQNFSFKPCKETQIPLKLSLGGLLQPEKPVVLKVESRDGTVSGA

[9] = Metabolic stability in dog liver microsomes assessed as compound remaining at 1 uM after 30 mins in presence of NADPH by LC-MS/MS analysis; assay type: ADME, Canis lupus familiaris; conditions: read-out: Stability
[10] = Permeability of the compound in PBS at pH 7.4 at 10 uM after 5 hrs by LC-MS/MS analysis; assay type: ADME; conditions: not told, read-out: permeability
[11] = biological target: T1, Estrogen-related receptor gamma; remark: listed apart in the source
Description: Inverse agonist activity at ERRgamma (unknown origin) expressed in human AD293 cells after 24 hrs by beta-galactosidase/luciferase reporter gene assay

[12] = in vitro; conditions: human, liver microsomes
Description: Metabolic stability in human liver microsomes assessed as compound remaining at 1 uM after 30 mins in presence of NADPH by LC-MS/MS analysis

[13] = in vitro; conditions: rat, liver microsomes
Description: Metabolic stability in rat liver microsomes assessed as compound remaining at 1 uM after 30 mins in presence of NADPH by LC-MS/MS analysis

[14] = in vitro; conditions: mouse, liver microsomes
Description: Metabolic stability in mouse liver microsomes assessed as compound remaining at 1 uM after 30 mins in presence of NADPH by LC-MS/MS analysis

[15] = biological target: T5, Estrogen receptor (Homo sapiens, UniProt P03372)
T5 sequence (P03372 whole entry): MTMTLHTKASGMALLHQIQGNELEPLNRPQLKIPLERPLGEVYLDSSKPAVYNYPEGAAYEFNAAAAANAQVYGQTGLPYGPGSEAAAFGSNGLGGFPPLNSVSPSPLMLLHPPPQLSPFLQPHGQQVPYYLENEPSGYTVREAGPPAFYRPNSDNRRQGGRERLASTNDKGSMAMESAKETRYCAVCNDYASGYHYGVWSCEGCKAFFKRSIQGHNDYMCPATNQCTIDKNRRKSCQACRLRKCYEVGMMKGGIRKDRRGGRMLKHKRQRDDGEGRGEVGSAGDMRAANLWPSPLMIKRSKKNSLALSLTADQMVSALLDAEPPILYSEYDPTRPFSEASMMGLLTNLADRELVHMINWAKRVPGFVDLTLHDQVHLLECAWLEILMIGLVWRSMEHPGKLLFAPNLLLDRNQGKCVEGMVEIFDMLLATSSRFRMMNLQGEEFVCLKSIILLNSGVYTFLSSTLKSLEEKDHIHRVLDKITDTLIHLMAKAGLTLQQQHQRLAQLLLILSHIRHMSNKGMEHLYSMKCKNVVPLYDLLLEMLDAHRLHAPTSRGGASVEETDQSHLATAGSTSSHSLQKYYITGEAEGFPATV
Description: Inhibition of fluorescien-conjugated coactivator PGC1a binding to ERalpha (unknown origin) after 1 hr by TR-FRET assay

IC50 [1]: 5600 nM
Compound: Cc1ccc(/C(=C(\CCCO)c2ccc3cnn(C)c3c2)c2ccc(OCCN(C)C)cc2)cc1

IC50 [1]: > 10000 nM
Compound: CN(C)CCOc1ccc(/C(=C(/CCCO)c2ccccc2)c2ccc(S(C)(=O)=O)cc2)cc1

IC50 [1]: 6700 nM
Compound: CN(C)CCOc1ccc(/C(=C(/CCCO)c2ccccc2)c2ccc(F)cc2F)cc1

IC50 [1]: > 10000 nM
Compound: Cc1ccc(/C(=C(\CCCO)c2cccnc2)c2ccc(OCCN(C)C)cc2)cc1

activity at 10 µM [3]: 84%
activity at 10 µM [5]: 73%
activity at 10 µM [6]: 78%
activity at 10 µM [7]: 82%
activity at 10 µM [8]: 83%
Papp at 5 h, 10 µM [10]: 0.43 ×10⁻⁶ cm/s
remaining at 0.5 h, 1 µM [12]: 43%
remaining at 0.5 h, 1 µM [13]: 26%
Compound: CN(C)CCOc1ccc(/C(=C(/CCCO)c2ccccc2)c2ccc(O)cc2)cc1.Cl

IC50 [1]: 520 nM
Compound: CN(C)CCOc1ccc(/C(=C(/CCCO)c2ccccc2)c2ccc(Cl)cc2)cc1

IC50 [1]: > 10000 nM
Compound: COc1ccc(/C(=C(\CCCO)c2ccc3cnn(C)c3c2)c2ccc(OCCN(C)C)cc2)cc1

IC50 [1]: > 10000 nM
Compound: CN(C)CCOc1ccc(/C(=C(/CCCO)c2ccccc2)c2ccc(C#N)cc2)cc1

IC50 [1]: 890 nM
Compound: CN(C)CCOc1ccc(/C(=C(/CCC(F)F)c2ccccc2)c2ccc(Br)cc2)cc1

IC50 [1]: 3900 nM
Compound: CN(C)CCOc1ccc(/C(=C(/CCCO)c2ccccc2)c2ccc(F)cc2)cc1

IC50 [1]: 500 nM
Compound: Cc1ccc(/C(=C(\CCCO)c2cccc(F)c2)c2ccc(OCCN(C)C)cc2)cc1

IC50 [1]: 1500 nM
Compound: CN(C)CCOc1ccc(/C(=C(/CCCO)c2ccccc2)c2ccccc2)cc1

Continued, compound first:

Compound: CN(C)CCOc1ccc(/C(=C(/CCCF)c2ccccc2)c2ccc(Br)cc2)cc1
IC50 [1]: 480 nM

Compound: COc1ccc(/C(=C(\CCCO)c2ccccc2)c2ccc(OCCN(C)C)cc2)cc1
IC50 [1]: 1000 nM

Compound: CN(C)CCCOc1ccc(/C(=C(/CCCO)c2ccccc2)c2ccc(O)cc2)cc1.Cl
IC50 [2]: > 10000 nM
activity at 10 µM [3]: 96%
IC50 [4]: > 10000 nM
activity at 10 µM [5]: 90%
activity at 10 µM [6]: 64%
activity at 10 µM [7]: 93%
activity at 10 µM [8]: 79%
remaining at 0.5 h, 1 µM [9]: 19%
Papp at 5 h, 10 µM [10]: 0.36 ×10⁻⁶ cm/s
IC50 [1]: 90 nM
IC50 [11]: 58 nM
remaining at 0.5 h, 1 µM [12]: 72%
remaining at 0.5 h, 1 µM [13]: 19%
remaining at 0.5 h, 1 µM [14]: 13%

Compound: CN(C)CCOc1ccc(/C(=C(/CCCO)c2ccccc2)c2cccnc2)cc1
IC50 [1]: > 10000 nM

Compound: CN(C)CCOc1ccc(/C(=C(/CCCO)c2ccccc2)c2ccc(C(F)(F)F)cc2)cc1
IC50 [1]: 1300 nM

Compound: CN(C)CCOc1ccc(/C(=C(/CCCO)c2cccnc2)c2ccccc2)cc1
IC50 [1]: > 10000 nM

Compound: CN(C)CCOc1ccc(/C(=C(/CCCO)c2cccnc2)c2ccc(Br)cc2)cc1
IC50 [1]: > 10000 nM

Compound: CN(C)CCOc1ccc(/C(=C(/CCCO)c2ccc3cnn(C)c3c2)c2ccc(Br)cc2)cc1
IC50 [1]: 5300 nM

Compound: CN(C)CCOc1ccc(/C(=C(/CCCO)c2cccc(F)c2)c2ccc(Br)cc2)cc1
IC50 [1]: 1100 nM

Compound: CN(C)CCOc1ccc(/C(=C(/CCC(F)F)c2ccccc2)c2ccc(O)cc2)cc1.Cl
IC50 [2]: 8100 nM
activity at 10 µM [3]: 14%
IC50 [4]: > 10000 nM
activity at 10 µM [5]: 60%
activity at 10 µM [6]: 11%
activity at 10 µM [7]: 12%
activity at 10 µM [8]: 11%
remaining at 0.5 h, 1 µM [9]: 73%
Papp at 5 h, 10 µM [10]: 0.54 ×10⁻⁶ cm/s
IC50 [11]: 111 nM
remaining at 0.5 h, 1 µM [12]: 77%
remaining at 0.5 h, 1 µM [13]: 66%
remaining at 0.5 h, 1 µM [14]: 91%

Compound: CN(C)CCOc1ccc(/C(=C(/CCCF)c2ccccc2)c2ccc(O)cc2)cc1.Cl
IC50 [2]: 8010 nM
activity at 10 µM [3]: > 100%
IC50 [4]: 722 nM
activity at 10 µM [5]: 99%
activity at 10 µM [6]: 72%
activity at 10 µM [7]: > 100%
activity at 10 µM [8]: 93%
remaining at 0.5 h, 1 µM [9]: 21%
Papp at 5 h, 10 µM [10]: 2.12 ×10⁻⁶ cm/s
IC50 [1]: 20 nM
IC50 [11]: 48 nM
remaining at 0.5 h, 1 µM [12]: 72%
remaining at 0.5 h, 1 µM [13]: 35%
remaining at 0.5 h, 1 µM [14]: 24%

Compound: CN(C)CCOc1ccc(/C(=C(/CCCO)c2ccccc2)c2ccc(Br)cc2)cc1.Cl
IC50 [2]: > 10000 nM
activity at 10 µM [3]: > 100%
IC50 [4]: 6950 nM
IC50 [15]: > 10000 nM
activity at 10 µM [5]: 86%
activity at 10 µM [6]: 61%
activity at 10 µM [7]: 99%
activity at 10 µM [8]: 88%
remaining at 0.5 h, 1 µM [9]: 5.8%
Papp at 5 h, 10 µM [10]: 6.52 ×10⁻⁶ cm/s
IC50 [1]: 117 nM
IC50 [11]: 719 nM
remaining at 0.5 h, 1 µM [12]: 42%
remaining at 0.5 h, 1 µM [13]: 30%
remaining at 0.5 h, 1 µM [14]: 35%

Compound: CN(C)CCOc1ccc(/C(=C(/CCCO)c2ccccc2)c2ccncc2)cc1
IC50 [1]: > 10000 nM
